Assay: Excipient compatibility: stability of binary mixture of API plus excipient, purity by HPLC
Type: physicochemical
Method: A comparison of the stability of the API of the current invention was made, using excipients well-known in the art. […] Compound purity was determined by HPLC. The mixture of the API and the calcium phosphate was allowed to stand under the specified conditions for the stated times. Results are given as percent purity of the API at the given time point. […] Again, the mixture of the API and the microcrystalline cellulose was allowed to stand under the specified conditions for the stated times. Results are given as percent purity of the API at the given time point.

O=C(CNC1CCNC1)N1CCCC1B(O)O (stereo not shown) [API, pyrrolidin-3-yl-glycyl-boro-proline]
% API (percent purity of the API) (binary mixture with dibasic calcium phosphate, 2 weeks/loose cap): 77.0%
% API (percent purity of the API) (binary mixture with dibasic calcium phosphate, 2 weeks/tight cap): 77.2%
% API (percent purity of the API) (binary mixture with dibasic calcium phosphate, 4 weeks/tight cap): 71.7%
drop in API purity (binary mixture with dibasic calcium phosphate, within two weeks, regardless of exposure to atmosphere): over 10%
% API (percent purity of the API) (binary mixture with microcrystalline cellulose, 2 weeks/loose cap): 82.1%
% API (percent purity of the API) (binary mixture with microcrystalline cellulose, 4 weeks/tight cap): 90.2%
storage stability of the API in the presence of calcium phosphate (presence of calcium phosphate): massive decomposition

Source: patent US20100247642A1, “STABLE PHARMACEUTICAL FORMULATION FOR A DPP-IV INHIBITOR” (Phenomix Corporation, priority 2007, published 2010)
